Test results as given in patent US4067997A, “Synergistic microbecidal composition and method” (priority 1976, dated 1978).
In brackets after ≈: the same amount, converted by molar mass. Read-outs that look alike come from different tables or passages of the source.

Legend:
[1] = tested on: Pseudomonas aeruginosa; test: MIC, agar dilution method (Example XVI); assay type: cell-based
Text: (§1) In a manner similar to that described in Example V, the effectiveness of certain food-grade microbecides are compared with mono-esters in an agar dilution method. The very favorable results may be noted from Table 19.

[2] = tested on: Staphylococcus aureus; test: MIC, agar dilution method (Example XVI); assay type: cell-based
Text: as §1

[3] = tested on: Escherichia coli; test: MIC, agar dilution method (Example XVI); assay type: cell-based
Text: as §1

[4] = tested on: Aspergillus niger; test: MIC, agar dilution method (Example XVI); assay type: cell-based
Text: as §1

[5] = tested on: Bacillus subtilis; test: MIC, agar dilution method (Example XVI); assay type: cell-based
Text: as §1

[6] = tested on: Canadida albicans; test: MIC, agar dilution method (Example XVI); assay type: cell-based
Text: as §1

[7] = tested on: gram-negative organisms; test: Inhibition, broth dilution (Example I); assay type: cell-based
Procedure: (§2) In order to establish comparative bactericidal and fungicidal results with homologous fatty acids, a series of experiments was performed with thirty straight-chain fatty acids and derivatives thereof. Eight different gram-negative and twelve different gram-positive organisms, representing a very broad spectrum of organisms, were used in these experiments including the fungus Candida (a yeast). Additionally, fatty acids were chosen to show the effects of saturation versus unsaturation, in the fatty acid claim. Standard solutions of the fatty acids and their derivatives were prepared by first dissolving the weighed compounds in 1 to 2 ml of 95% ethanol and immediately pouring this solution into 200 ml of Tripticase Soy Broth. These lipid compounds which are insoluble in water and broth precipitated into very small crystals or droplets. The tubes containing the suspension were warmed to approximately 70° C and were then placed in an ultrasonic tank for further solubilization of the lipid derivatives.
(§3) Standard solutions (or suspensions) at 1,000 μg/ml were twofold serially diluted with additional broth to a concentration of 125 μg/ml. A 4-ml amount of each dilution was then quickly, and with constant agitation, dispensed into appropriately labeled screw-capped glass tubes (16 by 125 mm). The tubes were sterilized with steam at 15 psi for 15 minutes. […]

[8] = tested on: gram-positive organisms; test: Inhibition, broth dilution (Example I); assay type: cell-based; conditions: read-out: Inhibitory concentration
Procedure: as §2, §3

[9] = tested on: S. epidermidis; test: MIC, broth dilution (Examples I/II); assay type: cell-based; conditions: Table 7, Staph epider.; > = no inhibition, max. tested
Procedure: as §2
(§4) Standard solutions (or suspensions) at 1,000 μg/ml were twofold serially diluted with additional broth to a concentration of 125 μg/ml. A 4-ml amount of each dilution was then quickly, and with constant agitation, dispensed into appropriately labeled screw-capped glass tubes (16 by 125 mm). The tubes were sterilized with steam at 15 psi for 15 minutes. After sterilization, all tubes were cooled and incubated overnight at 35° C to insure sterility.
(§5) All compounds were compared on a molar (micromoles/milliliter) rather than on a mass basis. In the following lists of organisms used, those followed by a parenthetical number are registered with the American Type Culture Collection (ATCC); the remainder were isolates from Providence Hospital or Northland Laboratory.
(§6) One drop (0.04 ± 0.01 ml) of an 18-hr broth culture containing 10^7 and 10^9 organisms/ml was added to each dilution of the test compound, as well as to a tube of plain broth which served as the positive control. After inoculation, the contents of each tube were well mixed, and the tubes were incubated at 35° C in a 5% carbon dioxide + […] atmosphere.
(§7) The MIC is defined as the lowest concentration of compound at which no […] evidence of growth was observed when turbidity of the inoculated broth dilutions was compared with control tubes. […] Only a one-tube difference between the bactericidal and bacteriostatic concentrations was normally observed.
(§8) Standard solutions (1000 μg/ml) of three fatty acids and polyglycerol esters thereof were prepared as described in Example I. Also sucrose esters were prepared by transferring the weighed compounds (0.2 gm. dissolved in 1 ml absolute methanol) into 200 ml of sterile Trypticase Soy Broth (TSB). These standard solutions (1000 μg/ml) were twofold serially diluted with additional sterile broth to a concentration of 125 μg/ml. A 3.8 aliquot of each dilution was asceptically delivered into sterile screw-capped culture tubes. All tubes were incubated overnight at 36° C to insure sterility. The microorganisms used in this example were the same as those used in Example I.
(§9) The inoculum, 0.05 ml of an 13-24 hour TSB culture (approximately 10^9 organisms/ml) was asceptically delivered into all dilutions of the compounds, mixed well, and incubated at 36° C. A tube of inoculated broth without the compound served as a positive control and an uninoculated set of dilutions incubated along with the test dilutions, served as a negative control.
(§10) In those cases in which the test compound itself caused turbidity, an aliquot (0.015 ml) of the mixed broth was inoculated onto an agar plate and incubated at 36° C for examination, as described in Example I. The control procedure of Example I was also repeated. The lauric, capric, and oleic acids were used as internal controls and for comparison to Example I. The minimal inhibitory concentrations (μmole/ml) for the compounds studied are given in Tables 7 and 8.

[10] = tested on: Streptococcus Group D; test: MIC, broth dilution (Examples I/II); assay type: cell-based; conditions: Table 7, Strep. Grp. D; > = no inhibition, max. tested
Procedure: as §2, §4, §5, §6, §7, §8, §9, §10

[11] = tested on: Streptococcus β-hemolytic Non-A; test: MIC, broth dilution (Examples I/II); assay type: cell-based, beta-hemolytic streptococci non-group A; conditions: Table 7, Strep. β-hemo. Non-A
Procedure: as §2, §4, §5, §6, §7, §8, §9, §10

[12] = tested on: Sarcina; test: MIC, broth dilution (Examples I/II); assay type: cell-based, Sarcina lutea (9431); conditions: Table 7, Sarcina; > = no inhibition, max. tested
Procedure: as §2, §4, §5, §6, §7, §8, §9, §10

[13] = tested on: Corynebacteria; test: MIC, broth dilution (Examples I/II); assay type: cell-based, Corynebacterium sp. (10700); conditions: Table 7, Cornebacteria
Procedure: as §2, §4, §5, §6, §7, §8, §9, §10

[14] = tested on: Streptococcus Group A; test: MIC, broth dilution (Examples I/II); assay type: cell-based, beta-hemolytic streptococci Group A; conditions: Table 7, Strep. Grp. A
Procedure: as §2, §4, §5, §6, §7, §8, §9, §10

[15] = tested on: Micrococci; test: MIC, broth dilution (Examples I/II); assay type: cell-based, Micrococcus sp.; conditions: Table 7, Micrococci
Procedure: as §2, §4, §5, §6, §7, §8, §9, §10

[16] = tested on: S. aureus; test: MIC, broth dilution (Examples I/II); assay type: cell-based, Staphylococcus aureus; conditions: Table 7, Staph aureus; > = no inhibition, max. tested
Procedure: as §2, §4, §5
One drop (0.04 ± 0.01 ml) of an 18-hr broth culture containing 10^7 and 10^9 organisms/ml was added to each dilution of the test compound, as well as to a tube of plain broth which served as the positive control. […]

[17] = tested on: S. pyogenes; test: Growth curve by optical density (Example IV, FIG. 3); assay type: cell-based, streptococcus pyogenes; conditions: 24 hours
Procedure: To a series of containers is added 40 ml of Trypticase Soy Broth and 0.5 ml of streptococcus pyogenes (10^8 organisms/ml). To respective containers are added the following: (1) 10 μg of glycerol 1-mono-laurinand 10 μg of glycerol dilaurin; (2) 5 μg of glycerol 1-mono-laurin and 5 μg of glycerol dilaurin; (3) 10 μg of glycerol 1-mono-laurin; and (4) 5 μg of glycerol 1-mono-laurin; and (5) a control without any additives. The rate of growth of the S. pyogenes was followed for 24 hours at 6 hour intervals by reading the optical density of the cultures at […] in a spectrophotometer.

[18] = Pseudomonas aeruginosa, Table 19, agar dilution, read-out: MIC
[19] = Staphylococcus aureus, Table 19, agar dilution, read-out: MIC
[20] = Escherichia coli, Table 19, agar dilution, read-out: MIC
[21] = Aspergillus niger, Table 19, agar dilution, read-out: MIC
[22] = Bacillus subtilis, Table 19, agar dilution, read-out: MIC
[23] = Table 19, agar dilution, read-out: MIC

Molecule	MIC [9] [µM]	MIC [10] [µM]	MIC [11] [µM]	MIC [12] [µM]	MIC [13] [µM]	MIC [14] [µM]	MIC [15] [µM]	other results
Oc1ccccc1 [Phenol]	–	–	–	–	–	–	–	MIC ([1]; Pseudomonas aeruginosa): 1250 µg/mL (≈ 13.3 mM); MIC ([2]; Staphylococcus aureus): 1250 to 2500 µg/mL (≈ 13.3 to 26.6 mM); MIC ([3]; Escherichia coli): 2500 µg/mL (≈ 26.6 mM); MIC ([4]; Aspergillus niger): 1250 µg/mL (≈ 13.3 mM); MIC ([5]; Bacillus subtilis): 1250 µg/mL (≈ 13.3 mM); MIC [6]: 1250 to 2500 µg/mL (≈ 13.3 to 26.6 mM)
CCCOC(=O)c1ccc(O)cc1 [Propyl paraben]	–	–	–	–	–	–	–	MIC [1, 18]: > 10000 µg/mL; MIC [2, 19]: 2500 µg/mL (≈ 13.9 mM); MIC [3, 20]: 5000 µg/mL (≈ 27.7 mM); MIC [4, 21]: 2500 µg/mL (≈ 13.9 mM); MIC [5, 22]: 2500 µg/mL (≈ 13.9 mM); MIC [6, 23]: 2500 µg/mL (≈ 13.9 mM)
C/C=C/C=C/C(=O)O [Sorbic acid]	–	–	–	–	–	–	–	MIC [1, 18]: 2000 µg/mL (≈ 17.8 mM); MIC [2, 19]: 1000 µg/mL (≈ 8.92 mM); MIC [3, 20]: 1000 µg/mL (≈ 8.92 mM); MIC [4, 21]: 1000 µg/mL (≈ 8.92 mM); MIC [5, 22]: 1000 µg/mL (≈ 8.92 mM); MIC [6, 23]: 1000 µg/mL (≈ 8.92 mM)
C[CH2][Hg][S]c1ccccc1C(=O)[O-].[Na+] [Thimerosal]	–	–	–	–	–	–	–	MIC ([1]; Table 19, agar dilution): 6.30 to 12.50 µg/mL; MIC ([2]; Table 19, agar dilution): 0.78 µg/mL; MIC ([3]; Table 19, agar dilution): 1.60 µg/mL; MIC ([4]; Table 19, agar dilution): 0.10 µg/mL; MIC ([5]; Table 19, agar dilution): 0.39 µg/mL; MIC ([6]; Table 19, agar dilution): 0.10 to 0.20 µg/mL
CCCCCCCCCCCCOS(=O)(=O)[O-].[Na+] [sodium lauryl sulfate]	–	–	–	–	–	–	–	Inhibition in words [7]: non-inhibitory; MIC [8]: 3470 µM
Decaglycerol monolaurate	> 1060	> 1060	530	> 1060	530	260	530	–
Hexaglycerol monocaprate	> 1580	> 1580	790	> 1580	390	190	790	–
Hexaglycerol monolaurate	> 1520	> 1520	380	> 1520	380	190	380	–
Triglycerol monocaprate	> 2500	> 2500	630	2500	320	150	1260	MIC [16]: > 2500 µM
Triglycerol monolaurate	> 2360	> 2360	590	1180	240	290	290	–
glycerol dilaurin	–	–	–	–	–	–	–	Antimicrobial activity in words (growth curve) [17]: essentially inactive
